Test results from US8410282B2, “Compounds as adenosine A1 receptor antagonists” (Palobiofarma, S.L., priority 2007, dated 2013).

Legend:
hA1 receptors = biological target: T1, hA1 receptors (Homo sapiens, UniProt P30542); assay: Adenosine receptor subtype competition radioligand binding assay, hA1; details: membranes from hA1 receptors transfected to CHO cells, [3H]-DPCPX as radioligand, 90 min at 25° C.; read-out: A1 Antagonism (Ki nM)
T1 construct: purchased Receptor Biology, Inc. (USA); host or cells: CHO cells
T1 sequence (P30542 1-326): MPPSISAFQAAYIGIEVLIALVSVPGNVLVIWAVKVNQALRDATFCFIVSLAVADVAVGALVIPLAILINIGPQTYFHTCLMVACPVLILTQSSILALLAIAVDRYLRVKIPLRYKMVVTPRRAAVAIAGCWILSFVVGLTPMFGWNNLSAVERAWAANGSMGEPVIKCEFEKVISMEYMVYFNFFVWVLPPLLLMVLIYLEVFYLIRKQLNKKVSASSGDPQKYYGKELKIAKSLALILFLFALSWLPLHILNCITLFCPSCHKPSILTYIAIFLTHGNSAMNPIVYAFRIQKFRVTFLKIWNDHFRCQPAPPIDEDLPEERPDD
Protocol: (§1) Pharmacological Activity Adenosine Receptor Subtype Competition Radioligand Binding Assay
(§2) Human membranes from recombinant adenosine receptors were purchased from Receptor Biology, Inc. (USA)
Competition assays were carried out by incubation of membranes from hA1 receptors transfected to CHO cells, [^3H]-DPCPX as radioligand, buffer (HEPES 20 mM (pH=7.4), 10 mM MgCl2, 100 mM NaCl, 2 units/ml adenosine deaminase), and unlabelled ligand in a total volume of 0.2 ml for 90 min at 25° C. R-PIA was used to determinate non-specific binding. Filter over Schleicher & Schuell GF/52 filters (pre-soaked 0.5% polyethylenimine) in a Brandel cell harvester. Unbound radioligand was removed with HEPES 30 mM (3×250 μl), NaCl (100 mM) and MgCl2 (10 mM).

hA2a receptors = biological target: T2, hA2a receptors (Homo sapiens, UniProt P29274); assay: Adenosine receptor subtype competition radioligand binding assay, hA2a; details: membranes from hA2a receptors transfected to HEK293 cells, [3H]ZM241385 as radioligand, 90 min at 25° C.; read-out: A2a Antagonism (Ki nM)
T2 construct: purchased Receptor Biology, Inc. (USA); host or cells: HEK293 cells
T2 sequence (P29274 whole entry): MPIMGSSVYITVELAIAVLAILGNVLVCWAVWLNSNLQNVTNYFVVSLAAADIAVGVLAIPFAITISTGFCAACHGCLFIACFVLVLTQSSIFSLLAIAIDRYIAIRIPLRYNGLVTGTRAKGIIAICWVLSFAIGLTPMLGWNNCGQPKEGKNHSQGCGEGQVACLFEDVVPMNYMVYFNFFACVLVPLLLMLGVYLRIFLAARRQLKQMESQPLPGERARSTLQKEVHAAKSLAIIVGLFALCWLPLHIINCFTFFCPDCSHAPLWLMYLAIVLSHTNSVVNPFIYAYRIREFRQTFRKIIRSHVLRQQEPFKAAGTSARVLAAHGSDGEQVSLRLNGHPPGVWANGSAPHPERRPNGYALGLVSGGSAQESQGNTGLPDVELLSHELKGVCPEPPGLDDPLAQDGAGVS
Protocol: as §1, §2
Competition assays were carried out by incubation of membranes from hA2a receptors transfected to HEK293 cells, [^3H]ZM241385 as radioligand, buffer (50 mM Tris-HCl (pH=7.4), 10 mM MgCl2, 1 mM […], 2 units/ml adenosine deaminase), and unlabelled ligand in a total volume of 0.2 ml for 90 min at 25° C. NECA was used to determinate non-specific binding. Filter over Schleicher & Schuell GF/52 filters (pre-soaked 0.5% polyethylenimine) in a Brandel cell harvester. Unbound radioligand was removed with 3×3 ml ice-cold 50 mM Tris-HCl (pH=7.4), 0.9% NaCl.

Row | Structure (SMILES) | Ki (hA1 receptors) [nM] | Ki (hA2a receptors) [nM]
1 | N#Cc1sc(NC(=O)[C@H]2CC[C@@H](C(=O)O)CC2)nc1-c1ccccc1 [Example 10, Cis-4-(5-cyano-4-phenyl-1,3-thiazol-2-ylcarbamoyl)cyclohexane Carboxylic Acid] | 7 | 1080
2 | N#Cc1sc(NC(=O)[C@@H]2CCC[C@H](C(=O)O)C2)nc1-c1cccc(F)c1 (relative stereo) [Example 75, Cis-3-[5-cyano-4-(3-fluorophenyl)-1,3-thiazol-2-ylcarbamoyl]cyclohexanecarboxylic Acid] | 14 | 1840
3 | N#Cc1sc(NC(=O)[C@H]2CC[C@H](C(=O)O)CC2)nc1-c1cccc(Cl)c1 [Example 36, trans-4-[4-(3-chlorophenyl)-5-cyano-1,3-thiazol-2-ylcarbamoyl]cyclohexanecarboxylic Acid] | 25 | 487
4 | N#Cc1sc(NC(=O)[C@@H]2CCC[C@H](C(=O)O)C2)nc1-c1cc(F)cc(F)c1 (relative stereo) [Example 114, Cis-3-[5-cyano-4-(3,5-difluorophenyl)-1,3-thiazol-2-ylcarbamoyl]cyclohexanecarboxylic Acid] | 32 | > 10000
5 | CC(C)(CCC(=O)O)C(=O)Nc1nc(-c2cccc(F)c2)c(C#N)s1 [Example 68, 4-[5-cyano-4-(3-fluorophenyl)-1,3-thiazol-2-ylcarbamoyl]-4-methylpentanoic Acid] | 51 | > 4000
6 | N#Cc1sc(NC(=O)[C@@H]2CCC[C@H](C(=O)O)C2)nc1-c1ccccc1Cl (relative stereo) [Example 26, Cis-3-[4-(2-chlorophenyl)-5-cyano-1,3-thiazol-2-ylcarbamoyl]cyclohexanecarboxylic Acid] | 31 | 3670

More lines, in order of falling Ki (hA1 receptors), values ahead:

Row | Ki (hA1 receptors) [nM] | Ki (hA2a receptors) [nM] | Structure (SMILES)
7 | 43 | > 10000 | CC(C)(CCC(=O)O)C(=O)Nc1nc(-c2ccccc2)c(C#N)s1 [Example 2, 4-(5-cyano-4-phenyl-1,3-thiazol-2-ylcarbamoyl)-4-methylpentanoic Acid]
8 | 17 | > 1200 | N#Cc1sc(NC(=O)[C@@H]2CCC[C@H](C(=O)O)C2)nc1-c1ccccc1 (relative stereo) [Example 8, Cis-3-(5-cyano-4-phenyl-1,3-thiazol-2-ylcarbamoyl)cyclohexane Carboxylic Acid]
9 | 16 | > 1300 | N#Cc1sc(NC(=O)[C@@H]2CC[C@H](C(=O)O)C2)nc1-c1ccccc1F (relative stereo) [Example 50, Cis-3-[5-cyano-4-(2-fluorophenyl)-1,3-thiazol-2-ylcarbamoyl]cyclopentanecarboxylic Acid]
10 | 6.4 | 940 | N#Cc1sc(NC(=O)C2CCC(C(=O)O)C2)nc1-c1ccccc1 (stereo not shown) [Example 5, 3-(5-cyano-4-phenyl-1,3-thiazol-2-ylcarbamoyl)cyclopentane Carboxylic Acid]
11 | 6 | 776 | N#Cc1sc(NC(=O)[C@H]2CC[C@@H](C(=O)O)CC2)nc1-c1cccc(F)c1 [Example 77, Cis-4-[5-cyano-4-(3-fluorophenyl)-1,3-thiazol-2-ylcarbamoyl]cyclohexanecarboxylic Acid]
